Results from patent publication US20210155671A1 (priority 2019, published 2021).

Columns and labels:
Daudi = format: cell-based
Raji = format: cell-based
SU-DHL-4 = format: cell-based
lymphoma (Daudi) cells = format: cell-based
Experimental: The cytotoxicity of Molecule 001 in combination with lenalidomide was also tested in vitro, in lymphoma (Daudi) cells. […] Following this, Molecule 001 was added and viability was measured after an additional 3 days, using the Promega® Cell Titer-Gb® assay (FIG. 19C).

[1] = system: Burkitt's lymphoma (ST-486) cells; format: cell-based; conditions: 72 hours
Experimental: The cytotoxicity of Molecule 001 in combination with lenalidomide was also tested in Burkitt's lymphoma (ST-486) cells. The cells were incubated with Molecule 001 only, lenalidomide only, or a combination of Molecule 001 and lenalidomide. Cell viability was measured 72 hours after treatment using the Promega® Cell TiterGlo® assay (FIG. 19E).

HBL-1 = format: cell-based
CD20 = CD20 (Homo sapiens, UniProt P11836); conditions: at 37° C.; cited from earlier work
Sequence of CD20 (P11836 whole entry): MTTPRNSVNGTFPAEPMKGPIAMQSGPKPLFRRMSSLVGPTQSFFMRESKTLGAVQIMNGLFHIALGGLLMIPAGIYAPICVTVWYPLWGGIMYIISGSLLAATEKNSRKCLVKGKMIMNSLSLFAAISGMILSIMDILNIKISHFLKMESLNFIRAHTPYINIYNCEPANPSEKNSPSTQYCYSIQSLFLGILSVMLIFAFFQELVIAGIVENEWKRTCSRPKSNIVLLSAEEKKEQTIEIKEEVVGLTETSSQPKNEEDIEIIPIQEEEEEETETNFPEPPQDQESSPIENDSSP

Compound: N.N.[Cl][Pt][Cl] [Cisplatin]
- In vitro responses to Molecule 001 in combination with chemotherapy (Daudi): Mixed
- In vitro responses to Molecule 001 in combination with chemotherapy (Raji): Synergistic
- In vitro responses to Molecule 001 in combination with chemotherapy (SU-DHL-4): Mixed

Compound: Nc1cccc2c1CN(C1CCC(=O)NC1=O)C2=O (stereo not shown) [lenalidomide]
- toxicity of Molecule 001 on cells pre-treated with lenalidomide (isobologram) (lymphoma (Daudi) cells; Daudi cells pre-treated with lenalidomide for 24 hours, then Molecule 001, viability after additional 3 days): synergistic toxicity
- potency of the combination of Molecule 001 and LEN against lymphoma cells (lymphoma (Daudi) cells; versus either agent alone): significantly greater potency against lymphoma cells than either agent alone
- effect of lenalidomide on the activity of Molecule 001 [1]: no effect on the activity of Molecule 001
- effect of lenalidomide on cell viability ([1]; concentrations used in this assay): little effect on cell viability

Compound: COc1cccc2c1C(=O)c1c(O)c3c(c(O)c1C2=O)C[C@@](O)(C(=O)CO)C[C@@H]3O[C@H]1C[C@H](N)[C@H](O)[C@H](C)O1 [Doxorubicin]
- In vitro responses to Molecule 001 in combination with chemotherapy (Daudi): Mixed
- In vitro responses to Molecule 001 in combination with chemotherapy (Raji): Synergistic
- In vitro responses to Molecule 001 in combination with chemotherapy (HBL-1): Synergistic

Compound: CC[C@]1(O)C[C@H]2CN(CCc3c([nH]c4ccccc34)[C@@](C(=O)OC)(c3cc4c(cc3OC)N(C=O)[C@H]3[C@@](O)(C(=O)OC)[C@H](OC(C)=O)[C@]5(CC)C=CCN6CC[C@]43[C@@H]65)C2)C1 [Vincristine]
- In vitro responses to Molecule 001 in combination with chemotherapy (Raji): Synergistic

Compound: rituximab
- time to maximal cellular internalization (CD20): 16 to 18 h

Compound: Nc1ccn([C@@H]2O[C@H](CO)[C@@H](O)C2(F)F)c(=O)n1 [Gemcitabine]
- In vitro responses to Molecule 001 in combination with chemotherapy (Raji): Synergistic

Compound: Cn1c(CCCC(=O)O)nc2cc(N(CCCl)CCCl)ccc21 [Bendamustine]
- In vitro responses to Molecule 001 in combination with chemotherapy (Daudi): Synergistic
- In vitro responses to Molecule 001 in combination with chemotherapy (HBL-1): Synergistic
- In vitro responses to Molecule 001 in combination with chemotherapy (SU-DHL-4): Synergistic
